Structures are written as SMILES.

The first series is described as follows: pKa and acid-form fraction of lactic acid. Type of series: physicochemical. As to conditions: pH of 2.2. From the text: In some example embodiments of formulations including an allergen neutralizing agent, the pH of the formulations can be kept low. A low pH can enhance the organic acid efficacy (e.g., lactic acid efficacy) in neutralization of airborne allergens. Typically, pH is kept a least 1 unit below pKa of the organic acid to ensure the majority (e.g., at least 90%) of acid stays in the active (conjugate acid) form. […].
`CC(O)C(=O)O` (centres unmarked) [lactic acid]: the “fraction of lactic acid in the acidic form” value is given as “at least 95%”.

Test in the next series: not given
As to conditions: cited from earlier work.
Consider `CCCCCC(=O)O` [hexanoic acid], for which the “Solubility in water (g of compound in 100 g of water at ~20° C.)” value (“Solubility in water” for short) was 1.03 g of compound in 100 g of water.

Still in this series, the particulars now being: ~20° C.; cited from earlier work.
Regarding `O=C(O)/C=C/C(=O)O` [fumaric acid], the “Solubility in water” value is listed as 0.7 g of compound in 100 g of water.
Turning to `CCCCCCC(=O)O` [heptanoic acid], the “Solubility in water” value was 0.2 g of compound in 100 g of water.
As to `CC(=O)CCC(=O)O` [levulinic acid], the “Solubility in water” value is 79.13 g of compound in 100 g of water.
On to `O=C(O)/C=C\C(=O)O` [maleic acid], for which the “Solubility in water” value was 47.88 g of compound in 100 g of water.
As for `O=C(O)CC(O)C(=O)O` (centres unmarked) [malic acid], the “Solubility in water” value was 64.7 g of compound in 100 g of water.
With `CS(=O)(=O)O` [methane sulfonic acid], the “Solubility in water” value is 100 g of compound in 100 g of water.
In the case of `CC(=O)C(=O)O` [pyruvic acid], the “Solubility in water” value was 100 g of compound in 100 g of water.
For `C/C=C/C=C/C(=O)O` [sorbic acid], the “Solubility in water” value was 0.156 g of compound in 100 g of water.
On to `CCCCC(=O)O` [valeric acid], for which the “Solubility in water” value is 3.75 g of compound in 100 g of water.

Values taken from patent publication US20250368923A1, “PRE-MOISTENED ARTICLES FOR REFRESHING CLOTHING IN THE DRYER” (The Clorox Company, priority 2024, published 2025).
